“And” between values parts separate entries of the source, which are not always exact repeats. Equal values may be shown once. “Also recorded” adds a separate entry of the source. Read-outs that look alike come from different tables or passages of the source. Marks after values point to notes of the source that are not given here.
What was measured:
[1] = cited from earlier work
[2] = cited from earlier work; remark: listed apart in the source
[3] = type: in vivo, NSCLC patients; conditions: for AUC / Cmax: geomean; for Cmax: Cmax (CV %); for Cmax RD, PPI with milk vs. PPI with water (95% CI): n = 15
Adverse event monitoring = type: in vivo, NSCLC patients
[4] = Milk [n = 30], without and with esomeprazole
[5] = Water [n = 29], without and with esomeprazole

In the case of `Cc1cn(-c2cc(NC(=O)c3ccc(C)c(Nc4nccc(-c5cccnc5)n4)c3)cc(C(F)(F)F)c2)cn1` [nilotinib], the “Safety of coadministration with yoghurt” value [1] is listed as “considered safe”.

For `CS(=O)(=O)CCNCc1ccc(-c2ccc3ncnc(Nc4ccc(OCc5cccc(F)c5)c(Cl)c4)c3c2)o1` [lapatinib], the AUC increase ([2]; with a high-fat meal ref 3) is given as “up to 325%” and the AUC increase ([2]; with a low-fat meal ref 3) is given as at most 200%.

For `C#Cc1cccc(Nc2ncnc3cc(OCCOC)c(OCCOC)cc23)c1` [erlotinib], the “Tmax (IQR), median” value ([3]; No PPI with milk [n = 14]) was 2.50 (2.00–3.00) hours, the “Interpatient variability (CV) in AUC24” value ([3]; PPI (esomeprazole), with milk) was 38% and the “Interpatient variability (CV) in AUC24” value ([3]; PPI (esomeprazole), with water) was 61%. For the same compound, the “Increase in Tmax with milk vs water” value ([3]; both study arms, non-significant) was 0.5 h, the “Decrease in erlotinib AUC24 by esomeprazole” value ([3]; esomeprazole 40 mg once daily 3 h prior to erlotinib vs no esomeprazole, n = 9) was 47% and ~50% and the AUC ([3]; human, plasma, oral, AUC24 (CV %), No PPI [n = 9], patients in both study arms, corrected for coadministration with milk) was 20100 ng·h/mL. For the same compound, the AUC ([3]; human, plasma, oral, AUC24 (CV %), PPI [n = 9], patients in both study arms, corrected for coadministration with milk) was 10600 ng·h/mL, the AUC ([3]; human, plasma, oral, AUC24 (CV%), No PPI with milk [n = 14]) was 22400 ng·h/mL and the Cmax ([3]; human, plasma, oral, PPI [n = 9], patients in both study arms, corrected for coadministration with milk) was 750 ng/mL. For the same compound, the Cmax ([3]; human, plasma, oral, PPI with milk [n = 15]) was 820 ng/mL, the Tmax ([3]; human, plasma, po) was 2.52 h and the AUC ([3]; human, plasma, po, AUC24 (CV%), No PPI with water [n = 14]) was 23000 ng·h/mL. For the same compound, the Cmax ([3]; human, plasma, po, No PPI with water [n = 14]) was 1850 ng/mL, the Cmax ([3]; human, plasma, po, PPI with water [n = 15]) was 810 ng/mL and the “Cmax RD, no-PPI with milk vs. no-PPI with water (95% CI)” value ([3]; n = 14) was 6%. The “Cmax RD, PPI with milk vs. PPI with water (95% CI)” value [3] was 1%, the “Cmax RD, PPI with milk vs. PPI with water (95% CI)” value ([3]; listed as Erlotinib) was 1.5% (− 12 to 17%) and the “Interpatient variability (CV) in AUC24” value ([3]; no PPI, with milk) was 35%. For the same compound, the “Interpatient variability (CV) in AUC24” value ([3]; no PPI, with water) was 37%, the “Decrease in AUC24 when administered with milk compared with water” value ([3]; non-PPI patients, non-significant) was 3% and the “All events, Grade 1–2” value (Adverse event monitoring; Baseline [n = 30]) was 29 (97) n (%). The “Alopecia, Grade 1–2” value (Adverse event monitoring; Baseline [n = 30]) was 12 (40) n (%), the “Constipation, Grade 1–2” value (Adverse event monitoring; Baseline [n = 30]) was 5 (17) n (%) and the “Diarrhea, Grade 1–2” value (Adverse event monitoring; Baseline [n = 30]) was 6 (20) n (%). The “Fatigue, Grade 1–2” value (Adverse event monitoring; Baseline [n = 30]) was 10 (33) n (%), the “Nausea, Grade 1–2” value (Adverse event monitoring; Baseline [n = 30]) was 1 (3) n (%) and the “Pain, Grade 1–2” value (Adverse event monitoring; Baseline [n = 30]) was 5 (17) n (%). For the same compound, the “Rash, Grade 1–2” value (Adverse event monitoring; Baseline [n = 30]) was 23 (77) n (%), the “Serious adverse event, Grade 3” value (Adverse event monitoring; Baseline [n = 30], spinal fracture, not related to study procedures) was 1 (3%)^a n (%) and the “All events, Grade 1–2” value (Adverse event monitoring; [4]) was 28 (93) n (%). For the same compound, the “All events, Grade 3” value (Adverse event monitoring; [4]) was 2 (6) n (%), the “Alopecia, Grade 1–2” value (Adverse event monitoring; [4]) was 11 (37) n (%) and the “Constipation, Grade 1–2” value (Adverse event monitoring; [4]) was 3 (10) n (%). For the same compound, the “Diarrhea, Grade 1–2” value (Adverse event monitoring; [4]) was 3 (10) n (%), the “Fatigue, Grade 1–2” value (Adverse event monitoring; [4]) was 6 (20) n (%) and the “Nausea, Grade 1–2” value (Adverse event monitoring; [4]) was 3 (10) n (%). The “Nausea, Grade 3” value (Adverse event monitoring; [4]) was 1 (3) n (%), the “Pain, Grade 1–2” value (Adverse event monitoring; [4]) was 9 (30) n (%) and the “Rash, Grade 1–2” value (Adverse event monitoring; [4]) was 20 (67) n (%). For the same compound, the “Rash, Grade 3” value (Adverse event monitoring; [4]) was 1 (3) n (%), the “All events, Grade 1–2” value (Adverse event monitoring; [5]) was 28 (97) n (%) and the “Alopecia, Grade 1–2” value (Adverse event monitoring; [5]) was 11 (38) n (%). The “Constipation, Grade 1–2” value (Adverse event monitoring; [5]) was 1 (3) n (%), the “Diarrhea, Grade 1–2” value (Adverse event monitoring; [5]) was 3 (10) n (%) and the “Fatigue, Grade 1–2” value (Adverse event monitoring; [5]) was 10 (34) n (%). The “Nausea, Grade 1–2” value (Adverse event monitoring; [5]) was 3 (10) n (%), the “Pain, Grade 1–2” value (Adverse event monitoring; [5]) was 7 (24) n (%) and the “Rash, Grade 1–2” value (Adverse event monitoring; [5]) was 18 (62) n (%). For the same compound, the “Difference in toxicities between milk and water periods” value (Adverse event monitoring; independent of study arm (with and without PPI)) was “No differences in toxicities were observed; also recorded: Patient-reported toxicity was equal between the milk and water groups, with and without proton pump inhibitors. Hence, cow’s milk can be used as a safe alternative to water for the administration of erlotinib. Concomitant treatment with esomeprazole should be avoided if possible”, the “Patient-reported adverse events during study compared with baseline” value (Adverse event monitoring; overall) was “did not increase compared with baseline” and the Increase in exposure ([2]; administered concomitantly with a high-fat meal ref 3) was 33–66%. For the same compound, the AUC increase ([2]; high-fat meal taken 2 h after erlotinib administration ref 22) was 33% and the “Increase in AUC” value ([2]; high-fat meal, food and drug taken concomitantly ref 23) was 66%.
